Assay results: paper PMC12052742, “Engineering a newly identified alcohol dehydrogenase from Sphingobium Sp. for efficient utilization of nicotinamide cofactors biomimetics” (Bioresources and Bioprocessing, 2025)

Columns and labels:
SpADH2 WT [1] = target: T1, SpADH2 WT (Sphingobium sp. SYK-6, UniProt G2IIZ8); test: Cofactor kinetic assay, WT; assay type: biochemical
Experimental: (§1) Specific activity of SpADH2 in substrate spectrum study was measured spectrophotometrically. PBS (pH 7.5) buffer was pre-heated at 30°C for 15 min. For NAD^+, 0.05 µg SpADH2 was added to the PBS buffer (100 µL), and a final concentration of 2 mM NAD^+ was added. For tsNCBs cofactor p-BANA^+, 5 µg SpADH2 and a final concentration of 7.5 mM p-BANA^+ was added. The mixture was carried out in a 96-well microplate, and a final concentration of 5 mM substrate was added to start the reaction. The microplate was incubated in 30°C for 1 h. Florescent probes (2-[2-(1,4-dihydro-1-methyl-3-quinolinyl)ethenyl]-1,3,3-trimethyl-3H-indolium) in a final concentration of 0.2 mM (100 µL) was added (Scheme S1), and the microplate was placed in a microplate reader immediately for measurement under 537 nm (Fomin et al. [2016]).
(§2) Kinetic analysis of SpADH2 and its variants were carried out following Michaelis-Menten equation or Michaelis-Menten excess substrate inhibition equation. For of the substrate kinetic assays, concentrations of cofactors were fixed at 5 mM for NAD^+ and 7.5 mM for p-BANA^+. For cofactor kinetic assays, the concentration of 1a was fixed at 5 mM.
(§3) Specific activity was determined spectrophotometrically as above except that gradient 1a (0−20 mM) or cofactor (0−35 mM) concentrations were applied.
(§4) Cofactor specificity ratio (CSR) represents the ratio of catalytic efficiency of p-BANA^+ to NAD^+ for each enzyme, and relative specificity (RS) stands for the CSR ratio of variants to WT (King et al. [2020]).

[2] = tested on: SpADH2 variants (H43L, A290I, H43L/A290I); test: Cofactor spectrum (HPLC specific activity), all variants together; assay type: biochemical, Sphingobium sp. SYK-6; conditions: 1a 5 mM, cofactor 7.5 mM, pH 7.5, 30℃
Experimental: Fig. 8 Cofactor spectrums of SpADH2 and its variants. The darkness of color for each cofactor stands for the activity. For each cofactor cube, top left: WT, top right: H43L, bottom left: A290I, bottom right: H43L/A290I. (a) Natural cofactors and NMN^+ are shown in purple. (b) tsNCBs are shown in cyan. The evaluation of cofactor spectrum was carried out under following conditions: 50 mM PBS buffer (pH 7.5) and 30℃, with 1a (5 mM) as substrate and different cofactors (7.5 mM) as cofactor. For NAD(P)^+ and NMN^+, 0.05 µg enzyme was added, and for tsNCBs, 5 µg enzyme was added. The results were analyzed by HPLC after 1 h reaction
Specific activity of SpADH2 in cofactor spectrum study was determined by HPLC analysis. PBS (pH 7.5) buffer was pre-heated at 30°C for 15 min. For NAD(P)^+ and NMN^+, 0.05 µg SpADH2 was added to PBS buffer (100 µL). For tsNCBs, 5 µg SpADH2 was added. A final concentration of 7.5 mM cofactor was added to the reaction mixture. Finally, a final concentration of 5 mM substrate was added to start the reaction. The reactions were conducted at 30°C.
One unit of enzyme activity is defined as the amount of enzyme required to form 1 µmol 1b per minute at pH 7.5 and 30°C. Same reaction without cofactor was used as a blank control.

SpADH2 WT [3] = target: T1, SpADH2 WT; test: Substrate kinetic assay, WT; assay type: biochemical
Experimental: as §1, §2, §3, §4

SpADH2 variant A290I = test: Activity of variant in oxidation of syringyl alcohol with p-BANA^+ (Fig. 5), A290I; assay type: biochemical, Sphingobium sp. SYK-6; conditions: cofactor p-BANA^+, substrate syringyl alcohol
Experimental: (§5) In the first round of screening, saturation mutagenesis was constructed for six positions (W114, T177, G172, G316, A47, and R227). […] Therefore, in the second round of mutagenesis, six additional sites within the 5 Å range of the cofactor ribose (H43, V202, T265, V288, G289, and A290) were selected for saturation mutagenesis screening (Fig. 6c and Fig. S6). Three beneficial mutations were identified. […] Subsequently, combinatorial mutagenesis was performed, resulting in 11 double variants and 3 triple variants.
(§6) Fig. 5 Relative activity of SpADH2 and its variants in oxidation of syringyl alcohol when utilizing p-BANA^+ as cofactor
(§7) In preliminary screening by spectrophotometric analysis, PBS (pH 7.5) buffer (50 µL) in a 96-well plate was pre-warmed at 30°C for 15 min, and a final concentration of 5 mM p-BANA^+ and 1 mM substrate syringyl alcohol were added, and 50 µL of crude enzyme were add to each well to start the reaction, with WT as control. The reaction mixture was incubated at 30°C for 1 h, followed by addition of fluorescent probes in a final concentration of 0.2 mM, and was subjected to determination under 537 nm as described above.

[4] = tested on: SpADH2 variant H43L/A290I; test: Cofactor kinetic assay, H43L/A290I; assay type: biochemical, Sphingobium sp. SYK-6
Experimental: as §1, §2, §3, §4

SpADH2 variant H43L = test: Activity of variant in oxidation of syringyl alcohol with p-BANA^+ (Fig. 5), H43L; assay type: biochemical, Sphingobium sp. SYK-6; conditions: cofactor p-BANA^+, substrate syringyl alcohol
Experimental: as §5, §6, §7

[5] = cofactor (= label) varied, 1a fixed at 5 mM
[6] = cofactor (= label) varied, 1a fixed at 5 mM, read-out: Ki (cofactor inhibition)

T1 sequence (G2IIZ8 1-372): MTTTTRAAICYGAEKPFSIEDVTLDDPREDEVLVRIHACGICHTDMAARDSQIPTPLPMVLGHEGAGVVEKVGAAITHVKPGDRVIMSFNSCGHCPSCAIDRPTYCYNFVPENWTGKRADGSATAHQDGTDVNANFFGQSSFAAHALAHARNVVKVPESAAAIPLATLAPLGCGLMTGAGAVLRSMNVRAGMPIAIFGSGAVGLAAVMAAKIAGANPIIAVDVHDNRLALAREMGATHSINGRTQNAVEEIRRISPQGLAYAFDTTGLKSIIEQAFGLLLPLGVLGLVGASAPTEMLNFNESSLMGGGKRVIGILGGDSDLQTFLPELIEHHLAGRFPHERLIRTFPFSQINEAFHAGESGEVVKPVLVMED

In the case of `NC(=O)c1ccc[n+](Cc2ccc(C(=O)O)cc2)c1` [p-BANA^+, para-3-carbamoyl-1-(4-carboxybenzyl)pyridin-1-ium], the kcat (SpADH2 WT [1]; [5]) is reported as 1.6 ± 0.5 min^− 1, the Ki (SpADH2 WT [1]; [6]) is reported as 12 ± 4.7 mM and the “Cofactor specificity ratio (catalytic efficiency of p-BANA^+ to NAD^+)” value (SpADH2 WT [1]; cofactor kinetics) is reported as 3.81×10^-5. The “catalytic activity of all variants with the cofactor (in words)” value [2] was “highest activity”, the kcat (SpADH2 WT [3]; 1a varied, cofactor (= label) fixed: 5 mM NAD^+ or 7.5 mM p-BANA^+) was 1.1 ± 0.3 min^− 1 and the “Cofactor specificity ratio (catalytic efficiency of p-BANA^+ to NAD^+)” value (SpADH2 WT [3]; substrate kinetics) was 1.52×10^-5. For the same compound, the “fold increase in activity vs WT” value (SpADH2 variant A290I) was 10 fold, the kcat [4, 5] was 8.7 ± 1.3 min^− 1 and the Km ([4]; cofactor (= label) varied, 1a fixed at 5 mM, pH 7.5, 30°C) was 13 ± 2.7 mM. For the same compound, the Ki [4, 6] was 15 ± 3.5 mM, the “Cofactor specificity ratio (catalytic efficiency of p-BANA^+ to NAD^+)” value ([4]; cofactor kinetics) was 1.94×10^-2 and the “Relative specificity (CSR ratio of variant to WT)” value ([4]; cofactor kinetics) was 509. For the same compound, the “fold increase in activity vs WT” value (SpADH2 variant H43L) was 2 fold.
